Experiments:
[1] = Differential scanning calorimetry (enthalpy of fusion); type: physicochemical; details: DSC, 10 °C/min, triplicate
Procedure: Differential scanning calorimetry (DSC) thermograms were obtained using a DSC 1 instrument from Mettler-Toledo AG (Greifensee, Switzerland). The instrument was calibrated for temperature and enthalpy using indium. Nitrogen was used as protective gas (150 mL/min). Samples (2–3 mg) were placed in 40 μL aluminum pans with pierced aluminum lids (Mettler-Toledo AG, Greifensee, Switzerland). The melting onset temperature (Tm) and the enthalpy of fusion (ΔHf) were determined by heating the samples at 10 °C/min from 25 °C to a maximum temperature of 300 °C. All DSC measurements were carried out in triplicate.

[2] = LSER descriptors by PSP approach from experimental inverse gas chromatography (IGC) data; type: physicochemical; details: initial or tentative estimates; for A (PSP): LSER acidity descriptor; for B (PSP): LSER basicity descriptor; for S (PSP): LSER polarity descriptor
Procedure: (§1) Inverse gas chromatography (IGC) was used to analyze solid samples packed into a chromatographic column as stationary phase. The equipment was a surface energy analyzer (iGC-SEA) from Surface Measurement Systems Ltd. (London, UK) and about 200 mg of each drug was inserted into silanized glass columns (3 mm inner diameter) by employing a standardized packing method with silanized glass wool that was used at both ends of the column as fixation. Prior to each measurement, the samples were conditioned for 1 h at 30 °C with dry helium with 0% relative humidity at a flow rate of 15 standard cubic centimeters per minute (sccm). Dead volume of the system was determined by injecting the inert probe methane prior and after each measurement. This stationary phase was flushed with an inert carrier gas—helium in the present study. Measuring conditions were the same as applied for sample conditioning, except for a flow rate of 10 sccm that was used. For all experiments, a relative surface coverage of 5% was selected.
The extent of interactions between the solid phase of interest and the probe gas is obtained by the net retention volume VN:(31) VN=j/mF(tR−t0)T/273.15, where T is the column temperature, F is the carrier gas flow rate at 1 atm and 273.15 K, m is the sample mass, tR is the retention time of the absorbed probe gas and t0 is the mobile phase hold up time, and finally, j represents the James–Martin correction (that adjusts retention time for the pressure drop effect in the column bed). The calculated retention volume VN is then used to estimate the mass activity coefficient, Ω at infinite dilution:(32) ln(Ω)=ln(273.15R/p0M1VN)−p0(B11−V1)/RT, where po is the saturation pressure and M is the molecular mass, while B11 is the second virial coefficient and V1 holds for molar volume of the probe gas. Conversion of the mass activity coefficient Ω to mole fraction activity coefficient γ (at infinite dilution) is done via the following equation:(33) lnγ1res,∞=ln(Ω1M1/M2)−(lnr1/r2+1−r1/r2)=r1χ12. and provided the basis for further thermodynamic analysis, as described in the Results section.
The PSP approach was used to characterize the studied drugs, that is, to determine their LSER descriptors from the experimental IGC data. The McGowan volume, Vx, is an atom-specific quantity and, thus, it is obtained either from the ACD software or from the freely accessible database via their SMILES form. […].
A and B descriptors were then obtained from IGC data with hydrogen-bonding probes (acidic, like chloroform, basic, like acetone, and homosolvated, like ethanol) correlated with Equation (34).

[3] = Surface energy components by IGC with the PSP/LSER method; type: physicochemical; details: for γd (dispersion component of surface energy): IGC, Dorris–Gray method, amorphous drug, 30 °C; for γhb (hydrogen-bonding surface energy component) / γa (acidic surface energy component) / γb (basic surface energy component) / γtot (total surface energy): PSP/LSER method; for γa (acidic surface energy component) / γb (basic surface energy component): Equation (27), unit assumed; for γtot (total surface energy): Equation (36)
Procedure: as §1
The PSP framework can also be used for the estimation of the surface energy components of the studied drugs. However, there are practically no data on the total surface energies of drugs available in the literature. Instead, the dispersion components, γd, were determined by the Dorris–Gray method. This dispersion component is practically equivalent to our nonhydrogen-bonding component, γVES. Thus, we may use Equation (29) in the equivalent form of Equation (36) and obtain the total surface energy of the drugs, γtot: (36) γtot=γd3.1Vx+E+S+2AB/3.1Vx+E+S.
In a similar manner, the acidity and basicity components of the surface energy are obtained from Equation (27).

[4] = Residual solid XRPD analysis after solubility equilibration in solvents; type: physicochemical; details: 24 h equilibration at room temperature in solvent
Procedure: All experiments were performed in triplicate. The drug concentration in the solvent bulk phase was determined simultaneously with a residual solid analysis of the drug by means of XRPD to detect possible solvent-mediated phase changes. Such residual solid analysis has been published before for a different miniaturized assay. […] The closed vials were equilibrated for 24 h by magnetic stirring at room temperature. […] An isocratic flow of a mixture of solvent A and solvent B was initially applied for 0.3 min at a flow rate of 0.75 mL/min. […] Table 1 summarizes the experimental conditions (initial composition of mobile phase, detection wave length) used for the different drugs. For solid state analysis, approx. 10-20 mg of the residual wet solids was manually transferred into a 96-well MultiScreen® Solubility Filter Plate (Millipore, Bedford, MA, USA) by a spatula. The filter plate was immediately sealed with adhesive acetate foil for microtest well plates (Sarstedt Inc., Newton, NC, USA) to minimize solvent evaporation. Solid state analysis of residual solids was based on a high-throughput XRPD method using a […] […] Samples were analyzed directly in the 96-well filter plate with an exposure time of 5 min per well.

[5] = Cohesive energy (solubility-parameter) components by the PSP/LSER method
[6] = design: method as in doi:10.1021/acs.iecr.7b02286; Vx (McGowan volume LSER descriptor): unit not given here; details: common solvents; cited from earlier work

## CCC(C)(C)C(=O)O[C@H]1C[C@@H](C)C=C2C=C[C@H](C)[C@H](CC[C@@H]3C[C@@H](O)CC(=O)O3)[C@H]21 [Simvastatin, simvastatin]
[1]
  ΔH^m (heat of fusion): 29.16 ± 0.83 kJ/mol
[2]
  A (PSP): 0.20
  B (PSP): 0.7 ± 0.2
  S (PSP): 4.28
[3]
  γd (dispersion component of surface energy): 57.36 mJ/m^2
  γhb (hydrogen-bonding surface energy component): 2.64 mJ/m^2
  γa (acidic surface energy component): 0.71 mJ/m^2
  γb (basic surface energy component): 2.47 mJ/m^2
  γtot (total surface energy): 60.00 mJ/m^2

## COc1ccccc1OCCNCC(O)COc1cccc2[nH]c3ccccc3c12 (centres unmarked) [Carvedilol, carvedilol]
[1]
  ΔH^m (heat of fusion): 47.36 ± 0.37 kJ/mol
[4]
  Residual solid form after solubility equilibration (XRPD): a changed solid form in dichloromethane after equilibration
[2]
  A (PSP): 0.50
  B (PSP): 1.45
  S (PSP): 3.19
[3]
  γd (dispersion component of surface energy): 47.83 mJ/m^2
  γhb (hydrogen-bonding surface energy component): 5.13 mJ/m^2
  γa (acidic surface energy component): 1.51 mJ/m^2
  γb (basic surface energy component): 4.37 mJ/m^2
  γtot (total surface energy): 52.96 mJ/m^2
[5]
  σGa (acidity PSP): 3.92 MPa^0.5
  σGb (basicity PSP): 6.68 MPa^0.5
  σd (dispersion PSP): 19.75 MPa^0.5
  σhb (hydrogen-bonding PSP): 8.14 MPa^0.5
  σp (polarity PSP): 9.91 MPa^0.5

## CC(=O)N1CCN(c2ccc(OCC3COC(Cn4ccnc4)(c4ccc(Cl)cc4Cl)O3)cc2)CC1 (centres unmarked) [Ketoconazole, ketoconazole]
[1]
  ΔH^m (heat of fusion): 53.16 ± 0.59 kJ/mol
[2]
  A (PSP): 0.00
  B (PSP): 0.7 ± 0.3
  S (PSP): 2.75
[3]
  γd (dispersion component of surface energy): 45.86 mJ/m^2
  γhb (hydrogen-bonding surface energy component): 0.00 mJ/m^2
  γa (acidic surface energy component): 0 mJ/m^2
  γb (basic surface energy component): 1.84 mJ/m^2
  γtot (total surface energy): 45.86 mJ/m^2
[5]
  σGa (acidity PSP): 0.00 MPa^0.5
  σGb (basicity PSP): 4.26 MPa^0.5
  σd (dispersion PSP): 19.52 MPa^0.5
  σhb (hydrogen-bonding PSP): 0.00 MPa^0.5
  σp (polarity PSP): 8.45 MPa^0.5
  σtot (square root of total cohesive energy density, equivalent to δtot): 21.27 MPa^0.5

## COc1cc(C(=O)NS(=O)(=O)c2ccccc2C)ccc1Cc1cn(C)c2ccc(NC(=O)OC3CCCC3)cc12 [Zafirlukast, zafirlukast]
[1]
  ΔH^m (heat of fusion): 19.6 ± 1.7 kJ/mol
[4]
  Residual solid form after solubility equilibration (XRPD): at least one different solid form following equilibration
[2]
  A (PSP): 0.71
  B (PSP): 2.1
  S (PSP): 4.66
[3]
  γd (dispersion component of surface energy): 49.43 mJ/m^2
  γhb (hydrogen-bonding surface energy component): 5.64 mJ/m^2
  γa (acidic surface energy component): 1.64 mJ/m^2
  γb (basic surface energy component): 4.85 mJ/m^2
  γtot (total surface energy): 55.07 mJ/m^2
[5]
  σGa (acidity PSP): 4.03 MPa^0.5
  σGb (basicity PSP): 6.94 MPa^0.5
  σd (dispersion PSP): 19.60 MPa^0.5
  σhb (hydrogen-bonding PSP): 9.01 MPa^0.5
  σp (polarity PSP): 10.33 MPa^0.5
  σtot (square root of total cohesive energy density, equivalent to δtot): 23.92 MPa^0.5

## O [Water]
[6]
  A (acidity LSER descriptor): 0.820
  B (basicity LSER descriptor): 0.350
  E (excess refractivity LSER descriptor): 0.000
  S (polarity LSER descriptor): 0.450
  Vx (McGowan volume LSER descriptor): 0.167

## CO [Methanol]
[6]
  A (acidity LSER descriptor): 0.430
  B (basicity LSER descriptor): 0.470
  E (excess refractivity LSER descriptor): 0.280
  S (polarity LSER descriptor): 0.439
  Vx (McGowan volume LSER descriptor): 0.308

## CCCCCCCCO [1-Octanol]
[6]
  A (acidity LSER descriptor): 0.370
  B (basicity LSER descriptor): 0.480
  E (excess refractivity LSER descriptor): 0.200
  S (polarity LSER descriptor): 0.421
  Vx (McGowan volume LSER descriptor): 1.295

## CCOC(=O)N1CCC(=C2c3ccc(Cl)cc3CCc3cccnc32)CC1 [Loratadine, loratadine]
[1]
  ΔH^m (heat of fusion): 27.97 ± 0.18 kJ/mol
[2]
  A (PSP): 0.00
  B (PSP): 0.6 ± 0.2
  S (PSP): 2.96
[3]
  γd (dispersion component of surface energy): 41.6 mJ/m^2
  γhb (hydrogen-bonding surface energy component): 0.00 mJ/m^2
  γtot (total surface energy): 41.60 mJ/m^2
[5]
  σd (dispersion PSP): 19.11 MPa^0.5
  σp (polarity PSP): 9.87 MPa^0.5

## CCO [Ethanol]
[6]
  A (acidity LSER descriptor): 0.370
  B (basicity LSER descriptor): 0.480
  E (excess refractivity LSER descriptor): 0.250
  S (polarity LSER descriptor): 0.419
  Vx (McGowan volume LSER descriptor): 0.449

## CCCCO [1-Butanol]
[6]
  E (excess refractivity LSER descriptor): 0.220
  S (polarity LSER descriptor): 0.420
  Vx (McGowan volume LSER descriptor): 0.731

## CCCCCCCC [n-Octane]
[6]
  Vx (McGowan volume LSER descriptor): 1.236

## C1CCOC1 [Tetrahydrofuran]
[6]
  B (basicity LSER descriptor): 0.479
  E (excess refractivity LSER descriptor): 0.291
  S (polarity LSER descriptor): 0.524
  Vx (McGowan volume LSER descriptor): 0.622
